# Data from patent publication US20250270213A1, “PI3Ka INHIBITORS” (Synnovation Therapeutics, Inc., priority 2022, published 2025).
# System: T47D (PIK3CA H1047R) cells
# Assay: pS473 AKT assay with 2.5% FBS, T47D cells
# Format: cell-based
# Settings: Homo sapiens, pSer473 AKT, DMEM with 2.5% FBS, 2 h treatment, read-out: T47D_IC50
# Method in brief: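 T47D (PIK3CA H1047R) cells were switched to DMEM with 2.5% FBS and exposed to compounds for 2 h. After paraformaldehyde fixation, pSer473 AKT was detected by in-cell ELISA (rabbit primary, HRP anti-rabbit secondary, chemiluminescence); IC50 values were fitted from the concentration series.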
row,SMILES,IC50 [nM]
1,"CCn1c(=O)c2cc(Cl)cc(C(C)Nc3ccccc3C(=O)O)c2n2cncc12 (centres unmarked) [Compound I-12, 2-((1-(7-Chloro-4-ethyl-5-oxo-4,5-dihydroimidazo[1,5-a]quinazolin-9-yl)ethyl)amino)benzoic acid]",< 1000
2,"CCc1ncn2c3c(C(C)Nc4ccccc4C(=O)O)cc(Cl)cc3c(=O)n(CC)c12 (centres unmarked) [Compound I-13, 2-((1-(7-Chloro-3,4-diethyl-5-oxo-4,5-dihydroimidazo[1,5-a]quinazolin-9-yl)ethyl)amino)benzoic acid]",< 1000
3,"Cc1cc(C(C)Nc2ccccc2C(=O)O)c2c(c1)c(=O)n(C)c1nccn21 (centres unmarked) [Compound I-14, 2-((1-(4,7-Dimethyl-5-oxo-4,5-dihydroimidazo[1,2-a]quinazolin-9-yl)ethyl)amino)benzoic acid]",< 1000
4,"Cc1cc(C(C)Nc2ccccc2C(=O)O)c2c(c1)c(=O)n(C)c1ncnn21 (centres unmarked) [Compound I-15, 2-((1-(4,7-Dimethyl-5-oxo-4,5-dihydro-[1,2,4]triazolo[1,5-a]quinazolin-9-yl)ethyl)amino)benzoic acid]",< 1000
5,"Cc1cc(C(C)Nc2ccccc2C(=O)O)c2c(c1)c(=O)n(C)c1c2cnn1C (centres unmarked) [Compound I-16, 2-((1-(3,4,7-Trimethyl-5-oxo-4,5-dihydro-3H-pyrazolo[3,4-c]isoquinolin-9-yl)ethyl)amino)benzoic acid]",< 1000
6,"Cc1cc(C(C)Nc2ccc(Cl)nc2C(=O)O)c2c(c1)c(=O)n(C)c1c2cnn1C (centres unmarked) [Compound I-17, 6-Chloro-3-((1-(3,4,7-trimethyl-5-oxo-4,5-dihydro-3H-pyrazolo[3,4-c]isoquinolin-9-yl)ethyl)amino)picolinic acid]",< 1000
7,"CCn1ncc2c3c(C(C)Nc4ccccc4C(=O)O)cc(C)cc3c(=O)n(C)c21 (centres unmarked) [Compound I-18, 2-((1-(3-Ethyl-4,7-dimethyl-5-oxo-4,5-dihydro-3H-pyrazolo[3,4-c]isoquinolin-9-yl)ethyl)amino)benzoic acid]",< 1000
8,"CCn1ncc2c3c(C(C)Nc4ccc(Cl)nc4C(=O)O)cc(C)cc3c(=O)n(C)c21 (centres unmarked) [Compound I-19, 6-Chloro-3-((1-(3-ethyl-4,7-dimethyl-5-oxo-4,5-dihydro-3H-pyrazolo[3,4-c]isoquinolin-9-yl)ethyl)amino)picolinic acid]",< 1000
9,"CCn1ncc2c3c(C(C)Nc4ccc(C)nc4C(=O)O)cc(C)cc3c(=O)n(C)c21 (centres unmarked) [Compound I-20, 3-((1-(3-Ethyl-4,7-dimethyl-5-oxo-4,5-dihydro-3H-pyrazolo[3,4-c]isoquinolin-9-yl)ethyl)amino)-6-methylpicolinic acid]",< 1000
10,"CCn1c(=O)c2cc(C)cc(C(C)Nc3ccccc3C(=O)O)c2c2cnn(C)c21 (centres unmarked) [Compound I-21, 2-((1-(4-Ethyl-3,7-dimethyl-5-oxo-4,5-dihydro-3H-pyrazolo[3,4-c]isoquinolin-9-yl)ethyl)amino)benzoic acid]",< 1000
11,"CCn1c(=O)c2cc(C)cc(C(C)Nc3ccc(Cl)nc3C(=O)O)c2c2cnn(C)c21 (centres unmarked) [Compound I-22, 6-Chloro-3-((1-(4-ethyl-3,7-dimethyl-5-oxo-4,5-dihydro-3H-pyrazolo[3,4-c]isoquinolin-9-yl)ethyl)amino)picolinic acid]",< 1000
12,"CCn1ncc2c3c(C(C)Nc4ccccc4C(=O)O)cc(C)cc3c(=O)n(CC)c21 (centres unmarked) [Compound I-23, 2-((1-(3,4-Diethyl-7-methyl-5-oxo-4,5-dihydro-3H-pyrazolo[3,4-c]isoquinolin-9-yl)ethyl)amino)benzoic acid]",< 1000
13,"CCn1ncc2c3c(C(C)Nc4ccc(F)cc4C(=O)O)cc(C)cc3c(=O)n(CC)c21 (centres unmarked) [Compound I-24, 2-((1-(3,4-Diethyl-7-methyl-5-oxo-4,5-dihydro-3H-pyrazolo[3,4-c]isoquinolin-9-yl)ethyl)amino)-5-fluorobenzoic acid]",< 1000
14,"CCn1ncc2c3c(C(C)Nc4ccc(C)nc4C(=O)O)cc(C)cc3c(=O)n(CC)c21 (centres unmarked) [Compound I-25, 3-((1-(3,4-Diethyl-7-methyl-5-oxo-4,5-dihydro-3H-pyrazolo[3,4-c]isoquinolin-9-yl)ethyl)amino)-6-methylpicolinic acid]",< 1000
